Test results from patent US12590070B2, “Adamantane derivatives as inhibitors of focal adhesion kinase” (SAMJIN PHARMACEUTICAL CO., LTD., priority 2019, dated 2026).

How the values were obtained:
Pyk2 [1] = target: T1, Pyk2 (Homo sapiens, UniProt Q14289); test: ADP-Glo Kinase Assay, Pyk2; type: biochemical; settings: ADP-Glo Kinase Assay Kit
T1 construct: purchased Promega V4083
Description: (§1) Briefly, a kinase test was performed and quantified according to the manufacturer's instructions after treating the adamantane derivative compound of the present invention by using the ADP-Glo™ Kinase Assay Kit (FAK, Promega, V1971; Pyk2, Promega, V4083; InsR, Promega, V9401) containing each kinase of Promega.

InsR = target: T2, InsR (Homo sapiens, UniProt P06213); test: ADP-Glo Kinase Assay, InsR; type: biochemical; settings: ADP-Glo Kinase Assay Kit
T2 construct: purchased Promega V9401
T2 sequence (P06213 28-1382): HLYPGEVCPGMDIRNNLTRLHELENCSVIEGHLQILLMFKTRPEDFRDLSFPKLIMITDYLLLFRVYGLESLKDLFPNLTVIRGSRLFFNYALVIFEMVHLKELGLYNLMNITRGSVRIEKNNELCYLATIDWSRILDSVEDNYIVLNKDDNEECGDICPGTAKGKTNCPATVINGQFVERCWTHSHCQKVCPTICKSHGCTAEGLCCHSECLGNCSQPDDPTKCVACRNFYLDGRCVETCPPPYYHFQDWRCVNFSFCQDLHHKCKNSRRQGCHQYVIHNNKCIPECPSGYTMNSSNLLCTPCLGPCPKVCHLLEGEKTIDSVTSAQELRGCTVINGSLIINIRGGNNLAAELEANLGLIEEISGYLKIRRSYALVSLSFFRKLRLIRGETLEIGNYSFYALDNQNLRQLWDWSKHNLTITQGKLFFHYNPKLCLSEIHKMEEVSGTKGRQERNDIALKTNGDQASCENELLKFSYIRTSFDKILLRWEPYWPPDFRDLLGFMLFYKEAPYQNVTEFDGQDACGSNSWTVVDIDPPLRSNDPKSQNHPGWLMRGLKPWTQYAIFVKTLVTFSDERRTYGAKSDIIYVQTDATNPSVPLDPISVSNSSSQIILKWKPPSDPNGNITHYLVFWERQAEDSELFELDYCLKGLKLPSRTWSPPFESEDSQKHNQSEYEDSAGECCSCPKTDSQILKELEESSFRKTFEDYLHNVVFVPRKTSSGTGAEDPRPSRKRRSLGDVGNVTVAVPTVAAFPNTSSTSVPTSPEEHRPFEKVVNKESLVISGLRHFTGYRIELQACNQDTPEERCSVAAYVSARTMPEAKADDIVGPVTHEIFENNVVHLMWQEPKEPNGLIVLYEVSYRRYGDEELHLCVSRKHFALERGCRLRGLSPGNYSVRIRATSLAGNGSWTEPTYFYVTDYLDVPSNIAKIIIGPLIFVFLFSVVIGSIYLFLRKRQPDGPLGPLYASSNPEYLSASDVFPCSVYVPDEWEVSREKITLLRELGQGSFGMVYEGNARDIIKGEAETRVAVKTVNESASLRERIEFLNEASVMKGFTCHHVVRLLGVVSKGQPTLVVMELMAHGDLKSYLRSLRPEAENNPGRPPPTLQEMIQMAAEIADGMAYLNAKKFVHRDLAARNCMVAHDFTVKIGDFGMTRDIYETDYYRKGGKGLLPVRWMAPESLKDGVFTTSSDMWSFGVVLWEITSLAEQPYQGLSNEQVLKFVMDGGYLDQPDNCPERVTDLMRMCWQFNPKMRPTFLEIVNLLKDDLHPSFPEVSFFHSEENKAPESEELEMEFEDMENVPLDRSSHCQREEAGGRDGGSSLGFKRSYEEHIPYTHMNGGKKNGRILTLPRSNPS
Description: as §1

FAK [2] = target: T3, FAK (Homo sapiens, UniProt Q05397); test: ADP-Glo Kinase Assay, FAK; type: biochemical; parameters: purchased Promega V1971; settings: ADP-Glo Kinase Assay Kit
T3 sequence (Q05397 whole entry): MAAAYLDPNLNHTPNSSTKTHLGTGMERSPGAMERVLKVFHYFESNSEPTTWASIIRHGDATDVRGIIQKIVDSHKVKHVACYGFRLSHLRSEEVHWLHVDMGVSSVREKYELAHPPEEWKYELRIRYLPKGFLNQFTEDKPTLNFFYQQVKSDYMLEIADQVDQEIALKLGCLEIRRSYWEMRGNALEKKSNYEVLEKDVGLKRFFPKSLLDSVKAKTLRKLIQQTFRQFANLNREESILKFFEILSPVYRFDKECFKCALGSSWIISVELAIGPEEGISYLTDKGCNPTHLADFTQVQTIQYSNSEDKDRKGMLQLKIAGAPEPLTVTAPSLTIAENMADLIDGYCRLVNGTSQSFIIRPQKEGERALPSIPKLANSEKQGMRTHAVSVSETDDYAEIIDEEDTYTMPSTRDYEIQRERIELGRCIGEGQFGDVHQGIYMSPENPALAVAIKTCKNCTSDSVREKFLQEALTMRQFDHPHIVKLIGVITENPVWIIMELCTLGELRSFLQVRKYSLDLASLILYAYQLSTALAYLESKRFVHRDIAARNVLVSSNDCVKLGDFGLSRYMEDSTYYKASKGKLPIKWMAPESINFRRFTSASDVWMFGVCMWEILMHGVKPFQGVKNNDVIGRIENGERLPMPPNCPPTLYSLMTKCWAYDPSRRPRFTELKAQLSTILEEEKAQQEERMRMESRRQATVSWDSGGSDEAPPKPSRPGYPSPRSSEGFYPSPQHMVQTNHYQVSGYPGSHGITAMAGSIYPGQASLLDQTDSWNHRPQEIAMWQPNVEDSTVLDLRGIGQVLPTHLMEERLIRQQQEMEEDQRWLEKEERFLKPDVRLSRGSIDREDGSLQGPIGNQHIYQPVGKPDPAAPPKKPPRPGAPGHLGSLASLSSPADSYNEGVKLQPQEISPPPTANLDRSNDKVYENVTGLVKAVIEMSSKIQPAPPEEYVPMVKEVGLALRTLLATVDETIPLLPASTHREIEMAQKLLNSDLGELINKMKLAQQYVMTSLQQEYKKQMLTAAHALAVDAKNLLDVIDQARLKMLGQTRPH
Description: as §1

FAK [3] = target: T3, FAK; test: FAK [pY397] ELISA in MDA-MB-231 cells; type: cell-based; parameters: endogenous in cells; host or cells: MDA-MB-231; settings: MDA-MB-231, treated for one hour, Table 2; read-out: FAK inhibitory activity (IC50)
Description: (§2) Briefly, an enzyme-linked immunosorbent assay test was performed according to the manufacturer's instructions by using the FAK (Phospho) [pY397] Human ELISA Kit (Thermo Fisher Scientific, KH00441) after dispensing 1×10^6 MDA-MB-231 cells into each well of a 6-well plate, inducing cell stabilization for 24 hours, and treating each compound at different concentrations (o, 1, 5, 10, 50, 100, 500, 1000 nM) for one hour.

Pyk2 [4] = target: T1, Pyk2; test: Eurofins kinase screening and profiling, Pyk2; type: biochemical
Met = target: T4, Met (Homo sapiens, UniProt P08581); test: Eurofins kinase screening and profiling, Met; type: biochemical
T4 construct: purchased Eurofins (contract screening service)

ALK = target: T5, ALK (Homo sapiens, UniProt Q9UM73); test: Eurofins kinase screening and profiling, ALK; type: biochemical
T5 construct: purchased Eurofins (contract screening service)
T5 sequence (Q9UM73 19-1620): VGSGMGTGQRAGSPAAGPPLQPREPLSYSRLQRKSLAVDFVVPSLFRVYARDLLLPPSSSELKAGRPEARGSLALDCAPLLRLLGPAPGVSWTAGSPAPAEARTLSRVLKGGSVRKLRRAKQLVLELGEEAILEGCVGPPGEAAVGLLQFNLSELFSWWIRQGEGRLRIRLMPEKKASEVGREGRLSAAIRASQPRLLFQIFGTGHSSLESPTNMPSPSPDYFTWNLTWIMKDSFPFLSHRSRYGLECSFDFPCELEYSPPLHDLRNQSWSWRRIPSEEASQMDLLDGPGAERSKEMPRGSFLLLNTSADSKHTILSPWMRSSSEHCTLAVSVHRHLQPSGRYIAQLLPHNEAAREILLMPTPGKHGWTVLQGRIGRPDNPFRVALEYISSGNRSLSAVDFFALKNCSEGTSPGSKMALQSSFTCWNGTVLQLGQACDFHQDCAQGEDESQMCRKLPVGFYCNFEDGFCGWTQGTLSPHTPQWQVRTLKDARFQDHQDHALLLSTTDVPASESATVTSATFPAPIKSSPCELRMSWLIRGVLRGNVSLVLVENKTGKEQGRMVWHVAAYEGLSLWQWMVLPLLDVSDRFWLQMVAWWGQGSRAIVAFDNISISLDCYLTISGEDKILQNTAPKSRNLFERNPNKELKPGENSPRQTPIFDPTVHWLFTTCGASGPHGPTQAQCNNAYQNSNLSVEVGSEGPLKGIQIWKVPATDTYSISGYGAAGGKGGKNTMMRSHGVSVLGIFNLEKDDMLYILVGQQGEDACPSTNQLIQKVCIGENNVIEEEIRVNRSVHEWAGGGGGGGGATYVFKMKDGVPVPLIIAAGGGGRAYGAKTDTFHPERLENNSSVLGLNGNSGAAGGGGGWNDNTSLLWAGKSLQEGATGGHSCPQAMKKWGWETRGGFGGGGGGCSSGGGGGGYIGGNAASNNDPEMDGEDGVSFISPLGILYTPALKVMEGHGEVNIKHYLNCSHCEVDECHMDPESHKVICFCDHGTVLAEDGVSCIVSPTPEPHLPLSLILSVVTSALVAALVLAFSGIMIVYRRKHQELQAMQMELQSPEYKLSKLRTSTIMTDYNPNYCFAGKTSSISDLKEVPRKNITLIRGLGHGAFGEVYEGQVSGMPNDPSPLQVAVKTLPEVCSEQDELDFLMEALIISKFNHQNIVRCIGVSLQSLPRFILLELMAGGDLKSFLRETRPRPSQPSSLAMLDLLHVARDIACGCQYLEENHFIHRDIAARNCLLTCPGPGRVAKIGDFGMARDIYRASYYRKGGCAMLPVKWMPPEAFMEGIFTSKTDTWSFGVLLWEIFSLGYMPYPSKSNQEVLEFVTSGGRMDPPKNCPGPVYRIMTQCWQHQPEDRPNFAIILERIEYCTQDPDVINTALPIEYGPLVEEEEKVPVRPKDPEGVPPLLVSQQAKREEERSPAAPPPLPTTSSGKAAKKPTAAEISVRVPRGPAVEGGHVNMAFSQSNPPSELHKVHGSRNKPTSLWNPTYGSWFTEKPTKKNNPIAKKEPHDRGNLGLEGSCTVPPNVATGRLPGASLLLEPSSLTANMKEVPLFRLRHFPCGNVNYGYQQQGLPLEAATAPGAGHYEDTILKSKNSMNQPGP

MDA-MB-453 = test: 3D spheroid assay, MDA-MB-453; type: cell-based; settings: Homo sapiens; MDA-MB-453 spheroids, 96 hours; read-out: Cancer cell growth inhibitory activity (IC50)
Description: (§3) A 3D spheroid assay was performed as a method for measuring the growth of cancer cells under three-dimensional (3D) culture conditions. Briefly, the 5×10^3 triple-negative breast cancer cells in each well of a 96-well flat plate were three-dimensionally cultured for three days by using MammoCult™ Human Medium Kit (Stemcell Technologies, #05620) and the formed cancer cell spheroids were treated with compound 4 at different concentrations (o, 0.2, 0.5, 1, 2, 5, 10, 20 PM) for 96 hours. The cancer cell growth inhibitory effect of the compound was quantified according to the manufacturer's instructions by using CellTiter-Glo® 3D Cell Viability Assay Kit (Promega, G9681).

Hs578T = test: 3D spheroid assay, Hs578T; type: cell-based; settings: Homo sapiens, Hs-578T; Hs578T spheroids, 96 hours; read-out: Cancer cell growth inhibitory activity (IC50)
Description: as §3

MDA-MB-231 cells [5] = test: 3D invasion assay; type: cell-based, human; settings: MDA-MB-231 spheroids, 1, 5 μM, 72 hours, FIGS. 2 and 3
Description: A cell invasion assay was performed and quantified according to a 3D invasion assay. Briefly, MDA-MB-231 cells were cultured in a 96-well round plate (5×10^3/well) for three days to form cancer cell spheroids, then fixed in a mixture of semi-solid Matrigel and type I collagen, and then treated with compound 4 at different concentrations (1, 5 μM). A degree of infiltration was analyzed by using a microscope (see FIG. 2) and an imaging software ImageJ in 72 hours later, and an obtained area value was quantified based on a following equation (Equation 1) and shown in a graph (see FIG. 3). Relative invasion=(total area of compound treated group−spheroid area of compound treated group)/(total area of control−spheroid area of control) [Equation 1]

MDA-MB-231 cells [6] = test: Triple-negative breast cancer xenograft mouse model; type: in vivo; settings: MDA-MB-231 xenograft nude mice
Description: In one week after acclimatization of five-week-old male nude mice, 1×10^6 MDA-MB-231 cells were subcutaneously inoculated into the mice and observed until a tumor volume reached about 100 mm^3 after 14 days. In order to confirm a tumor growth inhibitory effect of derived candidate materials in the triple-negative breast cancer xenograft mouse model, eight mice for each group were divided into a control group and three experimental groups at different concentrations (4-20 mg/kg, 4-40 mg/kg and 4-80 mg/kg), and each compound was treated once daily. A tumor volume of the mice was measured three times a week on every other day, and the mice were sacrificed on day 29 after cell inoculation. FIG. 4 is a graph showing the tumor volume calculated based on the following formula (Equation 2) with a starting date of drug treatment as day 1. Tumor volume (mm^3)=[(tumor short diameter^2×tumor long diameter)/2] [Equation 2] […] [Equation 3]

FAK [7] = target: T3, FAK; test: Eurofins kinase screening and profiling, FAK; type: biochemical; parameters: purchased Promega V1971
FAK [8] = target: T3, FAK; test: FAK [pY397] ELISA in MDA-MB-453 cells; type: cell-based; parameters: endogenous in cells; host or cells: MDA-MB-231; settings: cell line MDA-MB-453; read-out: FAK inhibitory activity (IC50)
FAK [9] = target: T3, FAK; test: FAK [pY397] ELISA in HCC70 cells; type: cell-based; parameters: endogenous in cells; host or cells: MDA-MB-231; settings: cell line HCC70; read-out: FAK inhibitory activity (IC50)
Description: as §2

FAK [10] = target: T3, FAK; test: FAK [pY397] ELISA in BT-20 cells; type: cell-based; parameters: endogenous in cells; host or cells: MDA-MB-231; settings: cell line BT-20; read-out: FAK inhibitory activity (IC50)
FAK [11] = target: T3, FAK; test: FAK [pY397] ELISA in BT-549 cells; type: cell-based; parameters: endogenous in cells; host or cells: MDA-MB-231; settings: cell line BT-549; read-out: FAK inhibitory activity (IC50)
FAK [12] = target: T3, FAK; test: FAK [pY397] ELISA in Hs578T cells; type: cell-based; parameters: endogenous in cells; host or cells: MDA-MB-231; settings: cell line Hs578T; read-out: FAK inhibitory activity (IC50)
[13] = preclinical study; cited from earlier work
[14] = at 1 μM, read-out: % inhibition rate (at 1 μM)

T1 sequence (Q14289 whole entry): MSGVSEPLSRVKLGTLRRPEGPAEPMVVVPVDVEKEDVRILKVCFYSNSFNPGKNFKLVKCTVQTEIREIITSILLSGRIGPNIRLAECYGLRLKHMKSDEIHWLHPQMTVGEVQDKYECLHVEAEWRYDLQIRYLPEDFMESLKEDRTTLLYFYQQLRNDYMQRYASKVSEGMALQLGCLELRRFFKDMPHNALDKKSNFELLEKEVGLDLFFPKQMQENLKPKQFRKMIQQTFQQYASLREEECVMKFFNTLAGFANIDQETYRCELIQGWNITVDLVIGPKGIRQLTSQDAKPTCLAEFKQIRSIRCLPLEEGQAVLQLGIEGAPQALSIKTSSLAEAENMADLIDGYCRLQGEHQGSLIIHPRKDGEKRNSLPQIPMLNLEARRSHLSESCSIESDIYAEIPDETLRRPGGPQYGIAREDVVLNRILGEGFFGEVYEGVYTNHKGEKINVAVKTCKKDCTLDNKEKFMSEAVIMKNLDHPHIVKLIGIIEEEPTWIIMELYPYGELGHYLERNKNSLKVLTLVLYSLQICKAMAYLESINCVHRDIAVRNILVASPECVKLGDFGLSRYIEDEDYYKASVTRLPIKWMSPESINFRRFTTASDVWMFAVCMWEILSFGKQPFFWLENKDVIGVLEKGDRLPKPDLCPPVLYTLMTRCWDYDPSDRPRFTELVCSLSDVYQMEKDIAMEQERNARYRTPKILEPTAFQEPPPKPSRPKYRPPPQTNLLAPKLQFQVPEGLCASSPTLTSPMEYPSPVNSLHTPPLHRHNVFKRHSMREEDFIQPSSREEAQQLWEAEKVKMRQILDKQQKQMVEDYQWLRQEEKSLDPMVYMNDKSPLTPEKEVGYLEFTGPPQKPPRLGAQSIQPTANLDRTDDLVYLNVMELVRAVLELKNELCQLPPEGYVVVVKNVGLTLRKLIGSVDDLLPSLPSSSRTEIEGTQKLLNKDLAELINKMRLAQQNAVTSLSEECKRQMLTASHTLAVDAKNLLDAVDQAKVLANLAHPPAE

Structure (SMILES)	IC50 (Pyk2 [1])	IC50 (InsR)	IC50 (FAK [2])	IC50 (FAK [3])	other results
CNC(=O)c1cccc(C)c1Nc1nc(Nc2ccc(N[C@H]3C4CC5CC3C[C@](O)(C5)C4)cc2OC)ncc1C(F)(F)F [Compound 1, 2-((2-((4-(((trans)-5-hydroxyadamantan-2-yl)amino)-2-methoxyphenyl)amino)-5-(trifluoromethyl)pyrimidin-4-yl)amino)-N,3-dimethylbenzamide]	124 nM	> 10000 nM	82.9 nM	83 nM	
CNC(=O)c1cccc(C)c1Nc1nc(Nc2ccc(N3CCN(C4C5CC6CC(C5)CC4C6)CC3)cc2OC)ncc1C(F)(F)F (stereo not shown) [Compound 3, 2-((2-((4-(4-(adamantan-2-yl)piperazin-1-yl)-2-methoxyphenyl)amino)-5-(trifluoromethyl)pyrimidin-4-yl)amino)-N,3-dimethylbenzamide]	256 nM	> 10000 nM	154 nM	92 nM	
CNC(=O)c1cccc(C)c1Nc1nc(Nc2ccc(N3CCN([C@H]4C5CC6CC4C[C@](O)(C6)C5)CC3)cc2OC)ncc1C(F)(F)F [Compound 4, 2-((2-((4-(4-((trans)-5-hydroxyadamantan-2-yl)piperazin-1-yl)-2-methoxyphenyl)amino)-5-(trifluoromethyl)pyrimidin-4-yl)amino)-N,3-dimethylbenzamide]	151 nM	5670 nM	46.2 nM	34 nM	IC50 (Pyk2 [4]; Pyk2, Eurofins): 301 nM; inhibition at 1 µM (Pyk2 [4]; Pyk2, at 1 μM, read-out: % inhibition rate (at 1 μM)): 96%; IC50 (Met; Eurofins): 542 nM; inhibition at 1 µM (Met; [14]): 79%; IC50 (ALK; Eurofins): 802 nM; inhibition at 1 µM (ALK; [14]): 72%; IC50 (MDA-MB-453): 1040 nM; IC50 (Hs578T): > 10000 nM; invasion inhibitory activity (MDA-MB-231 cells [5]): excellent invasion inhibitory activity; % TGI (MDA-MB-231 cells [6]; 20 mg/kg once daily): 72.11%; % TGI (MDA-MB-231 cells [6]; 40 mg/kg once daily): 74.03%; % TGI (MDA-MB-231 cells [6]; 80 mg/kg once daily): 81.28%; IC50 (FAK [7]; Eurofins): 78 nM; inhibition at 1 µM (FAK [7]; [14]): 97%; IC50 (FAK [8]): 20 nM; IC50 (FAK [9]): 59 nM; IC50 (FAK [10]): 63 nM; IC50 (FAK [11]): 49 nM; IC50 (FAK [12]): 20 nM
CNC(=O)c1cccc(C)c1Nc1nc(Nc2ccc(NC3CCN(C4C5CC6CC(C5)CC4C6)CC3)cc2OC)ncc1C(F)(F)F (stereo not shown) [Compound 6, 2-((2-((4-((1-(adamantan-2-yl)piperidin-4-yl)amino)-2-methoxyphenyl)amino)-5-(trifluoromethyl)pyrimidin-4-yl)amino)-N,3-dimethylbenzamide]	157 nM	> 10000 nM	96.5 nM	118 nM	
CNC(=O)c1cccc(C)c1Nc1nc(Nc2ccc(NC3CCN([C@H]4C5CC6CC4C[C@](O)(C6)C5)CC3)cc2OC)ncc1C(F)(F)F [Compound 7, 2-((2-((4-((1-((trans)-5-hydroxyadamantan-2-yl)piperidin-4-yl)amino)-2-methoxyphenyl)amino)-5-(trifluoromethyl)pyrimidin-4-yl)amino)-N,3-dimethylbenzamide]	108 nM	6150 nM	46.9 nM	38 nM	
CNC(=O)c1cccc(C)c1Nc1nc(Nc2ccc(OC34CC5CC(C3)C(=O)C(C5)C4)cc2OC)ncc1C(F)(F)F [Compound 10, 2-((2-((2-methoxy-4-((4-oxoadamantan-1-yl)oxy)phenyl)amino)-5-(trifluoromethyl)pyrimidin-4-yl)amino)-N,3-dimethylbenzamide]		> 10000 nM	96.7 nM	382 nM	
CNC(=O)c1cccc(C)c1Nc1nc(Nc2ccc(OC34CC5CC(C3)C(O)C(C5)C4)cc2OC)ncc1C(F)(F)F (stereo not shown) [Compound 11, 2-((2-((4-((4-hydroxyadamantan-1-yl)oxy)-2-methoxyphenyl)amino)-5-(trifluoromethyl)pyrimidin-4-yl)amino)-N,3-dimethylbenzamide]	231 nM	> 10000 nM	65.1 nM	118 nM	
CNC(=O)c1cccc(C)c1Nc1nc(Nc2ccc(NC(=O)C34CC5CC(C3)C(N3CCOCC3)C(C5)C4)cc2OC)ncc1C(F)(F)F (stereo not shown) [Compound 25, N-(3-methoxy-4-((4-((2-methyl-6-(methylcarbamoyl)phenyl)amino)-5-(trifluoromethyl)pyrimidin-2-yl)amino)phenyl)-4-morpholinoadamantan-1-carboxamide]	90.6 nM	> 10000 nM	45.5 nM	27 nM	
CNC(=O)c1cccc(C)c1Nc1nc(Nc2ccc(NC(=O)[C@]34CC5CC(C3)[C@@H](N3CC[C@H](NC(C)=O)C3)C(C5)C4)cc2OC)ncc1C(F)(F)F [Compound 27, (trans)-4-((S)-3-acetamidopyrrolidin-1-yl)-N-(3-methoxy-4-((4-((2-methyl-6-(methylcarbamoyl)phenyl)amino)-5-(trifluoromethyl)pyrimidin-2-yl)amino)phenyl) adamantan-1-carboxamide]	81.4 nM	> 10000 nM	39.5 nM	55 nM	
CNC(=O)c1ccccc1Nc1nc(Nc2ccc(N3CCOCC3)cc2OC)ncc1Cl [TAE226]					side effects [13]: serious side effects such as unexpected inhibition of glucose metabolism, a decrease in blood concentration
